# In PubChem BioAssay (NCI):
#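 A five-concentration, 48-hour dose response in 96-well plates underlies each endpoint, interpolated linearly between surrounding concentrations. TGI: total growth inhibition.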
# Columns and labels:
# Assay in all cases: NCI tumour cell line growth inhibition, 48 h
# NCI-H226 lung = test system: NCI-H226 lung
# M19-MEL melanoma = test system: M19-MEL melanoma
# SR leukemia = test system: SR leukemia
# NCI-H23 lung = test system: NCI-H23 lung
# CAKI-1 renal = test system: CAKI-1 renal
# UACC-257 melanoma = test system: UACC-257 melanoma
# XF 498 CNS = test system: XF 498 CNS
# HCT-116 colon = test system: HCT-116 colon
# U251 CNS = test system: U251 CNS
# SNB-75 CNS = test system: SNB-75 CNS
# SF-295 CNS = test system: SF-295 CNS
# DLD-1 colon = test system: DLD-1 colon
# OVCAR-8 ovarian = test system: OVCAR-8 ovarian
# OVCAR-4 ovarian = test system: OVCAR-4 ovarian
# KM20L2 colon = test system: KM20L2 colon
# SW-620 colon = test system: SW-620 colon
# HOP-92 NSCLC = test system: HOP-92 NSCLC
# SF-539 CNS = test system: SF-539 CNS
# RPMI-8226 leukemia = test system: RPMI-8226 leukemia
# DMS 114 small cell lung = test system: DMS 114 small cell lung
# UACC-62 melanoma = test system: UACC-62 melanoma
# TK-10 renal = test system: TK-10 renal
# IGROV1 ovarian = test system: IGROV1 ovarian
# HT29 colon = test system: HT29 colon
# RXF 393 renal = test system: RXF 393 renal
# SNB-78 CNS = test system: SNB-78 CNS
# 786-0 renal = test system: 786-0 renal
# HOP-62 NSCLC = test system: HOP-62 NSCLC
# NCI-H460 lung = test system: NCI-H460 lung
# M14 melanoma = test system: M14 melanoma
# HCC-2998 colon = test system: HCC-2998 colon
# SNB-19 CNS = test system: SNB-19 CNS
# SK-MEL-5 melanoma = test system: SK-MEL-5 melanoma
# OVCAR-3 ovarian = test system: OVCAR-3 ovarian
# DMS 273 small cell lung = test system: DMS 273 small cell lung
# COLO 205 colon = test system: COLO 205 colon
# LOX IMVI melanoma = test system: LOX IMVI melanoma
# ACHN renal = test system: ACHN renal
# SN12C renal = test system: SN12C renal
# OVCAR-5 ovarian = test system: OVCAR-5 ovarian
# MALME-3M melanoma = test system: MALME-3M melanoma
# NCI-H522 lung = test system: NCI-H522 lung
# HCT-15 colon = test system: HCT-15 colon
# SK-OV-3 ovarian = test system: SK-OV-3 ovarian
# UO-31 renal = test system: UO-31 renal
# A549 NSCLC = test system: A549 NSCLC
# SF-268 CNS = test system: SF-268 CNS
# SK-MEL-28 melanoma = test system: SK-MEL-28 melanoma
# KM12 colon = test system: KM12 colon
# SK-MEL-2 melanoma = test system: SK-MEL-2 melanoma
# CCRF-CEM leukemia = test system: CCRF-CEM leukemia
# HL-60(TB) leukemia = test system: HL-60(TB) leukemia
# MOLT-4 leukemia = test system: MOLT-4 leukemia
# K-562 leukemia = test system: K-562 leukemia
# LXFL 529 NSCLC = test system: LXFL 529 NSCLC
# EKVX NSCLC = test system: EKVX NSCLC
# A498 renal = test system: A498 renal
smiles,measurement,setting,value
CC(c1ccccc1)N1O[C@]12CC[C@@]1(C)C(CCCC13OCCO3)C2 (stereo partly drawn),TGI,NCI-H226 lung,> 100 µM
same,TGI,M19-MEL melanoma,51 µM
same,TGI,SR leukemia,40.4 µM
same,TGI,NCI-H23 lung,> 100 µM
same,TGI,CAKI-1 renal,37.2 µM
same,TGI,UACC-257 melanoma,43.4 µM
same,TGI,XF 498 CNS,44.3 µM
same,TGI,HCT-116 colon,29.6 µM
same,TGI,U251 CNS,37.6 µM
same,TGI,SNB-75 CNS,39 µM
same,TGI,SF-295 CNS,44.3 µM
same,TGI,DLD-1 colon,32.7 µM
same,TGI,OVCAR-8 ovarian,37.2 µM
same,TGI,OVCAR-4 ovarian,33.2 µM
same,TGI,KM20L2 colon,> 100 µM
same,TGI,SW-620 colon,34.4 µM
same,TGI,HOP-92 NSCLC,23.7 µM
same,TGI,SF-539 CNS,> 100 µM
same,TGI,RPMI-8226 leukemia,> 100 µM
same,TGI,DMS 114 small cell lung,27.4 µM
same,TGI,UACC-62 melanoma,35.4 µM
same,TGI,TK-10 renal,32.2 µM
same,TGI,IGROV1 ovarian,12.1 µM
same,TGI,HT29 colon,44.3 µM
same,TGI,RXF 393 renal,54.5 µM
same,TGI,SNB-78 CNS,40.9 µM
same,TGI,786-0 renal,36.5 µM
same,TGI,HOP-62 NSCLC,> 100 µM
same,TGI,NCI-H460 lung,38.1 µM
same,TGI,M14 melanoma,32.1 µM
same,TGI,HCC-2998 colon,> 100 µM
same,TGI,SNB-19 CNS,> 100 µM
same,TGI,SK-MEL-5 melanoma,93.1 µM
same,TGI,OVCAR-3 ovarian,34.4 µM
same,TGI,DMS 273 small cell lung,36 µM
same,TGI,COLO 205 colon,32.5 µM
same,TGI,LOX IMVI melanoma,26.2 µM
same,TGI,ACHN renal,30.3 µM
same,TGI,SN12C renal,75.6 µM
same,TGI,OVCAR-5 ovarian,> 100 µM
same,TGI,MALME-3M melanoma,83.9 µM
same,TGI,NCI-H522 lung,32 µM
same,TGI,HCT-15 colon,46.2 µM
same,TGI,SK-OV-3 ovarian,> 100 µM
same,TGI,UO-31 renal,31.9 µM
same,TGI,A549 NSCLC,43 µM
same,TGI,SF-268 CNS,> 100 µM
same,TGI,SK-MEL-28 melanoma,> 100 µM
same,TGI,KM12 colon,43.2 µM
CC(C)(C)C1=Nc2c(Br)cc(C(C)(C)C)cc2C(C(F)(F)F)(C(F)(F)F)O1,TGI,M19-MEL melanoma,> 100 µM
same,TGI,SR leukemia,> 100 µM
same,TGI,NCI-H23 lung,> 100 µM
same,TGI,UACC-257 melanoma,> 100 µM
same,TGI,XF 498 CNS,59.4 µM
same,TGI,HCT-116 colon,> 100 µM
same,TGI,U251 CNS,44.7 µM
same,TGI,SNB-75 CNS,> 100 µM
same,TGI,SF-295 CNS,> 100 µM
same,TGI,DLD-1 colon,> 100 µM
same,TGI,SK-MEL-2 melanoma,> 100 µM
same,TGI,CCRF-CEM leukemia,> 100 µM
same,TGI,OVCAR-8 ovarian,> 100 µM
same,TGI,OVCAR-4 ovarian,> 100 µM
same,TGI,KM20L2 colon,> 100 µM
same,TGI,HL-60(TB) leukemia,47.4 µM
same,TGI,SW-620 colon,> 100 µM
same,TGI,SF-539 CNS,> 100 µM
same,TGI,RPMI-8226 leukemia,66.3 µM
same,TGI,MOLT-4 leukemia,> 100 µM
same,TGI,DMS 114 small cell lung,86.3 µM
same,TGI,UACC-62 melanoma,> 100 µM
same,TGI,TK-10 renal,> 100 µM
same,TGI,IGROV1 ovarian,> 100 µM
same,TGI,HT29 colon,> 100 µM
same,TGI,RXF 393 renal,43.5 µM
same,TGI,SNB-78 CNS,> 100 µM
same,TGI,786-0 renal,> 100 µM
same,TGI,HOP-62 NSCLC,> 100 µM
same,TGI,NCI-H460 lung,> 100 µM
same,TGI,K-562 leukemia,> 100 µM
same,TGI,LXFL 529 NSCLC,> 100 µM
same,TGI,M14 melanoma,> 100 µM
same,TGI,HCC-2998 colon,65.1 µM
same,TGI,SNB-19 CNS,> 100 µM
same,TGI,SK-MEL-5 melanoma,> 100 µM
same,TGI,OVCAR-3 ovarian,37 µM
same,TGI,DMS 273 small cell lung,> 100 µM
same,TGI,COLO 205 colon,> 100 µM
same,TGI,LOX IMVI melanoma,31.3 µM
same,TGI,ACHN renal,> 100 µM
same,TGI,EKVX NSCLC,> 100 µM
same,TGI,SN12C renal,> 100 µM
same,TGI,OVCAR-5 ovarian,> 100 µM
same,TGI,MALME-3M melanoma,> 100 µM
same,TGI,NCI-H522 lung,> 100 µM
same,TGI,HCT-15 colon,> 100 µM
same,TGI,SK-OV-3 ovarian,> 100 µM
same,TGI,UO-31 renal,> 100 µM
same,TGI,A549 NSCLC,> 100 µM
same,TGI,SK-MEL-28 melanoma,> 100 µM
same,TGI,KM12 colon,> 100 µM
COc1ccc(C(=O)O)c(Br)c1OCc1ccccc1,TGI,NCI-H226 lung,> 100 µM
same,TGI,M19-MEL melanoma,> 100 µM
same,TGI,NCI-H23 lung,> 100 µM
same,TGI,XF 498 CNS,> 100 µM
same,TGI,HCT-116 colon,> 100 µM
same,TGI,U251 CNS,> 100 µM
same,TGI,SNB-75 CNS,> 100 µM
same,TGI,SF-295 CNS,> 100 µM
same,TGI,DLD-1 colon,> 100 µM
same,TGI,SK-MEL-2 melanoma,> 100 µM
same,TGI,CCRF-CEM leukemia,> 100 µM
same,TGI,OVCAR-8 ovarian,> 100 µM
same,TGI,OVCAR-4 ovarian,> 100 µM
same,TGI,KM20L2 colon,> 100 µM
same,TGI,HL-60(TB) leukemia,> 100 µM
same,TGI,SW-620 colon,> 100 µM
same,TGI,HOP-92 NSCLC,> 100 µM
same,TGI,SF-539 CNS,> 100 µM
same,TGI,RPMI-8226 leukemia,> 100 µM
same,TGI,MOLT-4 leukemia,> 100 µM
same,TGI,DMS 114 small cell lung,> 100 µM
same,TGI,UACC-62 melanoma,> 100 µM
same,TGI,TK-10 renal,> 100 µM
same,TGI,IGROV1 ovarian,> 100 µM
same,TGI,A498 renal,> 100 µM
same,TGI,HT29 colon,> 100 µM
same,TGI,RXF 393 renal,> 100 µM
same,TGI,SNB-78 CNS,> 100 µM
same,TGI,786-0 renal,> 100 µM
same,TGI,HOP-62 NSCLC,> 100 µM
same,TGI,NCI-H460 lung,> 100 µM
same,TGI,K-562 leukemia,> 100 µM
same,TGI,LXFL 529 NSCLC,> 100 µM
same,TGI,M14 melanoma,> 100 µM
same,TGI,SNB-19 CNS,> 100 µM
same,TGI,SK-MEL-5 melanoma,> 100 µM
same,TGI,OVCAR-3 ovarian,> 100 µM
same,TGI,DMS 273 small cell lung,> 100 µM
same,TGI,COLO 205 colon,> 100 µM
same,TGI,LOX IMVI melanoma,> 100 µM
same,TGI,ACHN renal,> 100 µM
same,TGI,EKVX NSCLC,> 100 µM
same,TGI,SN12C renal,> 100 µM
same,TGI,OVCAR-5 ovarian,> 100 µM
same,TGI,NCI-H522 lung,> 100 µM
same,TGI,HCT-15 colon,> 100 µM
same,TGI,SK-OV-3 ovarian,> 100 µM
same,TGI,UO-31 renal,> 100 µM
same,TGI,A549 NSCLC,> 100 µM
same,TGI,SF-268 CNS,> 100 µM
same,TGI,SK-MEL-28 melanoma,> 100 µM
same,TGI,KM12 colon,> 100 µM
